Laboratory results published in patent US4515722A, “Phosphatidyl inositol analogs useful as anti-inflammatory/analgesic agents” (Merck & Co., Inc., priority 1982, dated 1985).

Legend:
[1] = test system: Phosphatidyl inositol-specific phospholipase C; assay: Phosphatidyl inositol-specific phospholipase C assay with sonicated human platelets; assay type: biochemical
Description: A. Protocol--Phosphatidyl inositol-specific phospholipase C assays. The assays were performed as follows: A mixture of PI (Sigma) and (^3 H-inositol)-PI in CHCl3 are blown to dryness under N2 and sonicated into a buffer containing DOC and CaCl2 so that the final concentrations in each 200 λ assay are:
0.5 mg/ml DOC containing an appropriate amount of an active compound
in 50 mM Hepes, 100 mM NaCl, 0.5 mg/ml BSA pH 7.
An aliquot of sonicated human platelets, 5×10^9 /ml, is added; the reaction is stopped after 10 minutes with a chloroform/methanol/H2 O solution and the upper water phase is counted to detect water-soluble inositol counts. The pH was checked during each assay using pH paper to verify that none of the compounds affected this parameter.

phospholipase C = conditions: background statement; cited from earlier work
[2] = Table II, Concentration 0.20 mM

CCCCCCCCCC(=O)OCC(CCP(=O)(O)OC1C(O)C(O)C(O)C(O)C1O)OC(=O)CCCCCCCCC (stereo not shown) [n-C9 H19 CO, 3,4-Didecanoyloxybutyl-1-phosphonyl-myo-inositol]
% Inhibition ([1]; Table I, Conc. 1.0 mM): 68%

CCCCCCCCCCCCCCCCCCP(=O)(O)O[C@H]1[C@H](O)[C@@H](O)[C@H](OP(=O)(O)CCCCCCCCCCCCCCCCCC)[C@@H](O)[C@H]1O (relative stereo) [1,4-di(octadecylphosphonyl)-myo-inositol]
% Inhibition ([1]; Table II, Concentration 0.033 mM): 18%
% Inhibition ([1]; Table II, Concentration 0.33 mM): 37%

c1ccc2c(c1)Nc1ccccc1S2 [phenothiazine]
inhibition of phospholipase C (phospholipase C): inhibited

CCCCCCCCCCCCCCCCCCP(=O)(O)OC1C(O)C(O)C(O)C(O)C1O (stereo not shown) [5-O--(octadecylphosphonyl)-myo-inositol]
% Inhibition ([1]; Table II, Concentration 0.050 mM): 27%
% Inhibition [1, 2]: 60%
% Inhibition ([1]; Table II, Concentration 1.00 mM): 81%

CCCCCCCCCCCCCCCCCCP(=O)(O)O[C@H]1[C@H](O)[C@@H](O)[C@H](O)[C@@H](O)[C@H]1OC (relative stereo) [DL-2-O--methyl-1-O--(octadecylphosphonyl)-myo-inositol]
% Inhibition ([1]; Table II, Concentration 0.122 mM): 53%
% Inhibition ([1]; Table II, Concentration 1.22 mM): 83%

CCCCCCCCCCCCP(=O)(O)O[C@H]1[C@H](O)[C@@H](O)[C@H](OP(=O)(O)CCCCCCCCCCCC)[C@@H](O)[C@H]1O (relative stereo) [Example 20, 1,4-di-O-(dodecylphosphonyl)myo-inositol]
% Inhibition ([1]; Table II, Concentration 0.043 mM): 20%
% Inhibition ([1]; Table II, Concentration 0.432 mM): 64%

CCCCCCCCCC(=O)OC(CCP(=O)(O)OC1C(O)C(O)C(O)C(O)C1O)COC(=O)CCc1ccc(Oc2ccccc2)cc1 (stereo not shown) [.0.O.0.CH2 CH2 CO]
% Inhibition ([1]; Table I, Conc. 0.1 mM): 47%
% Inhibition ([1]; Table I, Conc. 0.5 mM): 66%
% Inhibition ([1]; Table I, Conc. 1.0 mM): 76%

CCCCCCCCCCCCCCCCCCP(=O)(O)O[C@H]1[C@H](O)[C@@H](O)[C@H](O)[C@@H](O)[C@]1(O)CO (relative stereo) [DL-2-C--hydroxymethyl-1-O--octadecanephosphonyl-myo-inositol]
% Inhibition ([1]; Table II, Concentration 0.115 mM): 51%
% Inhibition ([1]; Table II, Concentration 1.15 mM): 89%

CCCCCCCCCCCCCCCCCCP(=O)(O)O[C@@H]1[C@H](O)[C@H](O)[C@@H](O)[C@H](O)[C@H]1O (relative stereo) [1-O--(octadecylphosphonyl)-myo-inositol]
% Inhibition ([1]; Table II, Concentration 0.105 mM): 12%
% Inhibition ([1]; Table II, Concentration 1.05 mM): 66%

CCCCCCCCCCCCP(=O)(O)O[C@@H]1[C@H](O)[C@H](O)[C@@H](O)[C@H](O)[C@H]1O (relative stereo) [1-O--(dodecylphosphonyl)-myo-inositol]
% Inhibition [1, 2]: 51%
% Inhibition ([1]; Table II, Concentration 2.0 mM): 82%

CCCCCCCC(=O)OCC(CCP(=O)(OC)OC1C(O)C(O)C(O)C(O)C1O)OC(=O)CCCCCCC (stereo not shown) [(M) (M) CH3]
% Inhibition ([1]; Table I, Conc. 0.5 mM): 50%
% Inhibition ([1]; Table I, Conc. 1.0 mM): 72%

CCCCCCCC(=O)OCC(CCP(=O)(O)OC1C(O)C(O)C(O)C(O)C1O)OC(=O)CCCCCCC (stereo not shown) [n-C7 H15 CO, 3,4-Dioctanoyloxybutyl-1-phosphonyl-myo-inositol]
% Inhibition ([1]; Table I, Conc. 1.0 mM): 64%

CCCCCCCCCC(=O)OC(CCP(=O)(O)OC1C(O)C(O)C(O)C(O)C1O)COC(=O)Cc1ccc(-c2ccccc2)cc1 (stereo not shown) [.0.-.0.CH2 CO, 3-Decanoyloxy-4-(p-diphenylacetyloxy)-butyl-1-phosphonyl-myo-inositol]
% Inhibition ([1]; Table I, Conc. 0.5 mM): 61%
% Inhibition ([1]; Table I, Conc. 1.0 mM): 75%

CCCCCCCCCCCCCCCC(=O)OCC(CCP(=O)(O)OC1C(O)C(O)C(O)C(O)C1O)OC(=O)CCCCCCCCCCCCCCC (stereo not shown) [n-C15 H31 CO, 3,4-Dipalmitoyloxybutyl-1-phosphonyl-myo-inositol]
% Inhibition ([1]; Table I, Conc. 0.05 mM): 37%
% Inhibition ([1]; Table I, Conc. 0.5 mM): 82%
% Inhibition ([1]; Table I, Conc. 1.0 mM): 84%
